ChEMBL document CHEMBL1130900, “Synthesis and structure-activity relationships of 2-pyridones: II. 8-(Fluoro-substituted pyrrolidinyl)-2-pyridones as antibacterial agents” (Bioorg Med Chem Lett, 1998)
Values after ≈ are worked out from the molar mass of the structure shown.

Legend:
[1] = Oral bioavailability in rat (dose 5 mg/kg); format: ADME, organism-based; conditions: in vivo
[2] = Compound was evaluated for maximal plasma concentration in rat upon 5 mg/kg upon oral administration; format: ADME, organism-based; parameters: dose 5 mg/kg, route oral
Enterococcus faecium = assay: Antibacterial activity against Enterococcus faecium ATCC 8043 was determined; format: functional; conditions: Enterococcus faecium, ATCC 8043; read-out: MIC
Escherichia coli [3] = assay: Antibacterial activity against Escherichia coli JUHL was determined; format: functional; conditions: Escherichia coli; read-out: MIC
Klebsiella aerogenes = assay: Antibacterial activity against Enterobacter aerogenes ATCC 13048 was determined; format: functional; conditions: Klebsiella aerogenes, ATCC 13048; read-out: MIC
Klebsiella pneumoniae = assay: Antibacterial activity against Klebsiella pneumoniae ATCC 8045 was determined; format: functional; conditions: Klebsiella pneumoniae, ATCC 8045; read-out: MIC
Staphylococcus aureus [4] = assay: Effective dose against Staphylococcus aureus NCTC-10649M in mice upon subcutaneous administration; format: functional; conditions: sc
Escherichia coli [5] = assay: Effective dose against Escherichia coli JUHL in mice upon subcutaneous administration; format: functional; conditions: sc
Staphylococcus aureus [6] = assay: Effective dose against Staphylococcus aureus NCTC-10649M in mice upon peroral administration; format: functional; conditions: po
[7] = Compound was tested for its effective dose against Escherichia coli JUHL in mice upon peroral administration; format: functional; conditions: Mus musculus, po
Providencia stuartii = assay: Antibacterial activity against Gram-negative Providencia Stuartii CMX640 was determined; format: functional; conditions: Providencia stuartii; read-out: MIC
Pseudomonas aeruginosa = assay: Antibacterial activity against Pseudomonas aeruginosa A-5007 was determined; format: functional; conditions: Pseudomonas aeruginosa; read-out: MIC
Staphylococcus aureus [8] = assay: Antibacterial activity against Staphylococcus aureus NCTC-10649M was determined; format: functional; conditions: Staphylococcus aureus; read-out: MIC
Staphylococcus aureus [9] = assay: Antibacterial activity against Staphylococcus aureus A1775 was determined; format: functional; conditions: Staphylococcus aureus; read-out: MIC
Streptococcus pyogenes = assay: Antibacterial activity against Streptococcus pyogenes EES61 was determined; format: functional; conditions: Streptococcus pyogenes; read-out: MIC
Streptococcus equinus = assay: Antibacterial activity against Gram-positive Streptococcus bovis A5169 was determined; format: functional; conditions: Streptococcus equinus; read-out: MIC
Mus musculus [10] = assay: Compound was tested for its effective dose against Staphylococcus aureus NCTC-10649M in mice upon peroral administration; format: functional; conditions: po
Mus musculus [11] = assay: Compound was tested for its effective dose against Staphylococcus aureus NCTC-10649M in mice upon subcutaneous administration; format: functional; conditions: sc
DNA gyrase (bacterial) = assay: Compound was tested for bacterial DNA gyrase activity; conditions: Bacteria
Mus musculus [12] = assay: Compound was tested for its effective dose against Staphylococcus aureus NCTC-10649M in mice upon peroral administration; Mice were infected with 1000xLD50; format: functional; conditions: po

SMILES	bioavailability [1]	Cmax [2]	MIC (Enterococcus faecium)	MIC (Escherichia coli [3])	MIC (Klebsiella aerogenes)	MIC (Klebsiella pneumoniae)	MIC (Providencia stuartii)	MIC (Pseudomonas aeruginosa)	MIC (Staphylococcus aureus [8])	MIC (Staphylococcus aureus [9])	MIC (Streptococcus pyogenes)	MIC (Streptococcus equinus)	ED50 (Staphylococcus aureus [4])	ED50 (Escherichia coli [5])	ED50 (Staphylococcus aureus [6])	ED50 [7]	ED50 (Mus musculus [10])	ED50 (Mus musculus [11])	CC50 (DNA gyrase (bacterial))	ED50 (Mus musculus [12])
Cc1c(N2CC[C@H]([C@@H](N)C(F)(F)F)C2)c(F)cn2c(=O)c(C(=O)O)cc(C3CC3)c12	57%	800 ng/mL	0.1 µg/mL (≈ 0.234 µM)	0.2 µg/mL (≈ 0.468 µM)	0.78 µg/mL (≈ 1.82 µM)	0.2 µg/mL (≈ 0.468 µM)	3.1 µg/mL (≈ 7.25 µM)	6.2 µg/mL (≈ 14.5 µM)	0.005 µg/mL (≈ 0.0117 µM)	0.39 µg/mL (≈ 0.912 µM)	0.2 µg/mL (≈ 0.468 µM)	0.2 µg/mL (≈ 0.468 µM)	11.9 mg/kg/day	> 4 mg/kg/day	25 mg/kg/day	> 10 mg/kg/day				
O=C(O)c1cn(C2CC2)c2cc(N3CCNCC3)c(F)cc2c1=O [CIPROFLOXACIN]			0.78 µg/mL (≈ 2.35 µM)		0.02 µg/mL (≈ 0.0604 µM)	0.02 µg/mL (≈ 0.0604 µM)	1.56 µg/mL (≈ 4.71 µM)	0.2 µg/mL (≈ 0.604 µM)	0.39 µg/mL (≈ 1.18 µM)	> 100 µg/mL		0.78 µg/mL (≈ 2.35 µM)		0.1 mg/kg/day		1 mg/kg/day	28.2 mg/kg/day	4.1 mg/kg/day		
Cc1c(N2CC[C@H](N)C2)c(F)cn2c(=O)c(C(=O)O)cc(C3CC3)c12 [ABT-719]			0.02 µg/mL (≈ 0.0579 µM)	0.002 µg/mL (≈ 0.00579 µM)	0.005 µg/mL (≈ 0.0145 µM)	0.005 µg/mL (≈ 0.0145 µM)	0.2 µg/mL (≈ 0.579 µM)	0.5 µg/mL (≈ 1.45 µM)	0.1 µg/mL (≈ 0.29 µM)	0.78 µg/mL (≈ 2.26 µM)	0.02 µg/mL (≈ 0.0579 µM)	0.02 µg/mL (≈ 0.0579 µM)	0.6 mg/kg/day	0.1 mg/kg/day	3.4 mg/kg/day	0.6 mg/kg/day			0.03 µg/mL (≈ 0.0869 µM)	
Cc1c(N2CCC(N)(CF)C2)c(F)cn2c(=O)c(C(=O)O)cc(C3CC3)c12 (configuration not stated)	63%	600 ng/mL	0.1 µg/mL (≈ 0.265 µM)	0.02 µg/mL (≈ 0.053 µM)	0.1 µg/mL (≈ 0.265 µM)	0.01 µg/mL (≈ 0.0265 µM)	0.39 µg/mL (≈ 1.03 µM)	0.39 µg/mL (≈ 1.03 µM)	0.02 µg/mL (≈ 0.053 µM)	0.78 µg/mL (≈ 2.07 µM)	0.1 µg/mL (≈ 0.265 µM)	0.2 µg/mL (≈ 0.53 µM)	2.7 mg/kg/day	4.3 mg/kg/day	10.3 mg/kg/day	15.1 mg/kg/day				
Cc1c(N2CCC(F)C2)c(F)cn2c(=O)c(C(=O)O)cc(C3CC3)c12 (configuration not stated)	13%	350 ng/mL	0.05 µg/mL (≈ 0.144 µM)	0.1 µg/mL (≈ 0.287 µM)	0.39 µg/mL (≈ 1.12 µM)	0.1 µg/mL (≈ 0.287 µM)	0.78 µg/mL (≈ 2.24 µM)	1.56 µg/mL (≈ 4.48 µM)	0.02 µg/mL (≈ 0.0574 µM)	1.56 µg/mL (≈ 4.48 µM)	0.1 µg/mL (≈ 0.287 µM)	0.1 µg/mL (≈ 0.287 µM)	> 12 mg/kg/day		> 50 mg/kg/day				0.6 µg/mL (≈ 1.72 µM)	
Cc1c(N2CC[C@@H]([C@@H](N)C(F)(F)F)C2)c(F)cn2c(=O)c(C(=O)O)cc(C3CC3)c12			0.39 µg/mL (≈ 0.912 µM)	0.78 µg/mL (≈ 1.82 µM)	1.56 µg/mL (≈ 3.65 µM)	0.39 µg/mL (≈ 0.912 µM)	6.2 µg/mL (≈ 14.5 µM)	6.2 µg/mL (≈ 14.5 µM)	0.02 µg/mL (≈ 0.0468 µM)	0.78 µg/mL (≈ 1.82 µM)	0.2 µg/mL (≈ 0.468 µM)	0.39 µg/mL (≈ 0.912 µM)								

Now from value to compound, other results behind:

bioavailability [1]	Cmax [2]	MIC (Enterococcus faecium)	MIC (Escherichia coli [3])	MIC (Klebsiella aerogenes)	MIC (Klebsiella pneumoniae)	MIC (Providencia stuartii)	MIC (Pseudomonas aeruginosa)	MIC (Staphylococcus aureus [8])	MIC (Staphylococcus aureus [9])	MIC (Streptococcus pyogenes)	MIC (Streptococcus equinus)	SMILES	ED50 (Staphylococcus aureus [4])	ED50 (Escherichia coli [5])	ED50 (Staphylococcus aureus [6])	ED50 [7]	ED50 (Mus musculus [10])	ED50 (Mus musculus [11])	CC50 (DNA gyrase (bacterial))	ED50 (Mus musculus [12])
		0.02 µg/mL (≈ 0.0468 µM)	0.02 µg/mL (≈ 0.0468 µM)	0.05 µg/mL (≈ 0.117 µM)	0.01 µg/mL (≈ 0.0234 µM)	1.56 µg/mL (≈ 3.65 µM)	0.39 µg/mL (≈ 0.912 µM)	0.01 µg/mL (≈ 0.0234 µM)	0.78 µg/mL (≈ 1.82 µM)	0.02 µg/mL (≈ 0.0468 µM)	0.02 µg/mL (≈ 0.0468 µM)	Cc1c(N2C[C@@H](CN)[C@H](C(F)(F)F)C2)c(F)cn2c(=O)c(C(=O)O)cc(C3CC3)c12	0.7 mg/kg/day		2.6 mg/kg/day				6.5 µg/mL (≈ 15.2 µM)	
		0.1 µg/mL (≈ 0.265 µM)	0.005 µg/mL (≈ 0.0132 µM)	0.02 µg/mL (≈ 0.053 µM)	0.005 µg/mL (≈ 0.0132 µM)	0.39 µg/mL (≈ 1.03 µM)	0.2 µg/mL (≈ 0.53 µM)	0.01 µg/mL (≈ 0.0265 µM)	1.56 µg/mL (≈ 4.13 µM)	0.02 µg/mL (≈ 0.053 µM)		Cc1c(N2C[C@H](CF)[C@H](N)C2)c(F)cn2c(=O)c(C(=O)O)cc(C3CC3)c12								
34%	900 ng/mL	0.1 µg/mL (≈ 0.275 µM)	0.02 µg/mL (≈ 0.055 µM)	0.05 µg/mL (≈ 0.138 µM)	0.05 µg/mL (≈ 0.138 µM)	0.78 µg/mL (≈ 2.15 µM)	0.39 µg/mL (≈ 1.07 µM)	0.02 µg/mL (≈ 0.055 µM)	1.56 µg/mL (≈ 4.29 µM)	0.1 µg/mL (≈ 0.275 µM)	0.2 µg/mL (≈ 0.55 µM)	Cc1c(N2C[C@@H](N)[C@@H](F)C2)c(F)cn2c(=O)c(C(=O)O)cc(C3CC3)c12	1.5 mg/kg/day	1.8 mg/kg/day		7.4 mg/kg/day				7.7 mg/kg/day
